Results from US12649723B2, “Carbonohydrazonoyl dicyanide compounds comprising 2 or more aryl or heteroaryl connected via linker and use thereof” (KOREA INSTITUTE OF SCIENCE AND TECHNOLOGY, priority 2020, dated 2026).

Experiments:
[1] = Liver microsome stability; assay type: in vitro ADME, rat; conditions: amount of substrate remaining; compound 1 μM, 30 minutes, 37° C., NADPH
Experimental: (§1) The stability of liver microsomes due to the compounds prepared according to Examples 1 to 175 was confirmed. Specifically, four types of liver microsomes (human, dog, rat, and mouse, each 0.25 mg/mL), a 0.1 M phosphate buffer solution (pH 7.4), and each of the compounds at a concentration of 1 μM were mixed and pre-cultured at 37° C. for 5 minutes and further cultured at 37° C. for 30 minutes together with an NADPH generation system solution added thereto. Thereafter, the reaction was terminated by adding an acetonitrile solution containing an internal standard material (chloropropamide) and centrifuged for 5 minutes (14,000 rpm, 4° C.), and then a supernatant was injected into an LC-MS/MS system for analysis of substrate drugs to thereby evaluate metabolic stability due to 8 types of compounds.
(§2) The amount of the substrate remaining after the reaction was analyzed using the Shimadzu Nexera XR system and TSQ Vantage (Thermo). In an HPLC column, Kinetex XB-C18 (2.1 mm×100 mm, particle size of 2.6 μm; Phenomenex, USA) was used, and mobile phases were (A) distilled water containing 0.1% formic acid and (B) acetonitrile containing 0.1% formic acid. Analyst software (version 1.6.3) and Xcalibur (version 1.6.1) were used for data analysis.

[2] = system: Tau-BiFC cells; test: Cell viability (cytotoxicity) in tau-BiFC cells, count of stained nuclei; assay type: cell-based; conditions: Forskolin-only group = 100% cell viability; for Cell viability (% @10 μM): compound 10 μM; for Cell viability: compounds marked *: measured at 3 μM
How it was run: (§3)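 Tau-BiFC cells were exposed for 48 h to compound (1, 3, 10 μM for screening; 0.03–30 μM for dose-response) plus 30 μM Forskolin to induce aggregation. BiFC fluorescence was normalised to Forskolin-only minus untreated controls, with IC50 from nonlinear regression. Viability was Hoechst-stained nuclei counts relative to Forskolin-only wells.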

[3] = target: T1, tau protein (Homo sapiens, UniProt P10636); test: Tau-BiFC cell model: inhibition of tau protein aggregation; assay type: cell-based; conditions: for remaining activity at 10 µM / remaining activity at 3 µM: 48 h, Forskolin-only group = 100% tau protein-aggregated state; for remaining activity at 10 µM: compound 10 μM, BiFC fluorescence, read-out: Response (% @10 μM); for IC50: Tau BiFC in cells, with Forskolin 30 μM, 48 hours; for remaining activity at 3 µM: compounds marked *: measured at 3 μM, read-out: Response
T1 construct: fused on or other part: Split fluorescent-protein halves for BiFC are fused to tau; In the published tau-BiFC line these are Venus VN173 and VC155
How it was run: as §3

[4] = target: T2, CYP3A4 (Homo sapiens, UniProt P08684); test: Inhibitory effect on CYP coenzyme activity, human liver microsomes; assay type: in vitro ADME; conditions: compound 10 μM; human liver microsomes 0.25 mg/mL; substrate midazolam; 15 minutes
T2 construct: human liver microsomes (0.25 mg/mL); from tissue; host or cells: human liver microsomes
Experimental: (§4) The inhibitory effects of the compounds prepared according to Examples 1 to 175 on CYP coenzyme activity were identified. Specifically, human liver microsomes (0.25 mg/mL), a 0.1 M phosphate buffer solution (pH 7.4), a substrate drug cocktail of five types of drug metabolism enzymes (50 μM phenacetin, 10 μM diclofenac, 100 μM S-mephenytoin, 5 μM dextromethorphan, and 2.5 μM midazolam), and the compound at a concentration of 0 μM or 10 μM were mixed and pre-cultured at 37° C. for 5 minutes, and then further cultured at 37° C. for 15 minutes together with an NADPH generation system solution added thereto. Thereafter, the reaction was terminated by adding an acetonitrile solution containing an internal standard material (terfenadine) and centrifuged for 5 minutes (14,000 rpm, 4° C.), and then a supernatant was injected into an LC-MS/MS system for simultaneous analysis of metabolites of the substrate drugs to thereby evaluate the inhibitory effects on drug metabolism.
(§5) Metabolites of each CYP coenzyme indicator drug generated through the reaction were analyzed using the Shimadzu Nexera XR system and TSQ Vantage (Thermo). In an HPLC column, Kinetex C18 (2.1 mm×100 mm, 2.6 μm, particle size; Phenomenex, USA) was used, and mobile phases were (A) distilled water containing 0.1% formic acid and (B) acetonitrile containing 0.1% formic acid, and a gradient program shown in Table 3 was applied thereto.
(§6) The generated metabolites were quantified using a multiple reaction monitoring (MRM) quantification mode, and Xcalibur (version 1.6.1) was used for data analysis. Inhibitory effects of the novel compound prepared according to the examples of the present invention on CYP coenzyme activity are shown in Table 4 below.

[5] = target: T3, CYP1A2 (Homo sapiens, UniProt P05177); test: as above; assay type: in vitro ADME; conditions: compound 10 μM; human liver microsomes 0.25 mg/mL; substrate phenacetin; 15 minutes
T3 construct: human liver microsomes (0.25 mg/mL); from tissue; host or cells: human liver microsomes
T3 sequence (P05177 1-516): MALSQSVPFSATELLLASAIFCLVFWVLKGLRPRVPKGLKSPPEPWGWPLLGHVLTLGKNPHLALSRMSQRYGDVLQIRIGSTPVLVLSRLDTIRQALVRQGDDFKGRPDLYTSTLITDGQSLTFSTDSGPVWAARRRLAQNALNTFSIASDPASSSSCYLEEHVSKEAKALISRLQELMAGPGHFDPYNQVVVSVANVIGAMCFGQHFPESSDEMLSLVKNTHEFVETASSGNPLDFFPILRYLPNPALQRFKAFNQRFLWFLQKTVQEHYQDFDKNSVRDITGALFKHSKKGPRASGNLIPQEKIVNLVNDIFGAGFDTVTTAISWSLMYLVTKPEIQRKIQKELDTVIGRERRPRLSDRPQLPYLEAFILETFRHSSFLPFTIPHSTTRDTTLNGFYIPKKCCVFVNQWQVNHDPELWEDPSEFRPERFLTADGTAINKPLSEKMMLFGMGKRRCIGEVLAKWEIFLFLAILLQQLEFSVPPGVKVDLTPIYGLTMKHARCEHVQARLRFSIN
Experimental: as §4, §5, §6

[6] = target: T4, CYP2C9 (Homo sapiens, UniProt P11712); test: as above; assay type: in vitro ADME; conditions: compound 10 μM; human liver microsomes 0.25 mg/mL; substrate diclofenac; 15 minutes
T4 construct: human liver microsomes (0.25 mg/mL); from tissue; host or cells: human liver microsomes
Experimental: as §4, §5, §6

[7] = target: T5, CYP2C19 (Homo sapiens, UniProt P33261); test: as above; assay type: in vitro ADME; conditions: compound 10 μM; human liver microsomes 0.25 mg/mL; substrate S-mephenytoin; 15 minutes
T5 construct: human liver microsomes (0.25 mg/mL); from tissue; host or cells: human liver microsomes
Experimental: as §4, §5, §6

[8] = target: T6, CYP2D6 (Homo sapiens, UniProt P10635); test: as above; assay type: in vitro ADME; conditions: compound 10 μM; human liver microsomes 0.25 mg/mL; substrate dextromethorphan; 15 minutes
T6 construct: human liver microsomes (0.25 mg/mL); from tissue; host or cells: human liver microsomes
Experimental: as §4, §5, §6

[9] = Liver microsome stability; assay type: in vitro ADME, human; conditions: amount of substrate remaining; compound 1 μM, 30 minutes, 37° C., NADPH
Experimental: as §1, §2

[10] = Liver microsome stability; assay type: in vitro ADME, dog; conditions: amount of substrate remaining; compound 1 μM, 30 minutes, 37° C., NADPH
Experimental: as §1, §2

[11] = Liver microsome stability; assay type: in vitro ADME, mouse; conditions: amount of substrate remaining; compound 1 μM, 30 minutes, 37° C., NADPH
Experimental: as §1, §2

T1 sequence (P10636 2-441 isoform P10636-8 limits assumed): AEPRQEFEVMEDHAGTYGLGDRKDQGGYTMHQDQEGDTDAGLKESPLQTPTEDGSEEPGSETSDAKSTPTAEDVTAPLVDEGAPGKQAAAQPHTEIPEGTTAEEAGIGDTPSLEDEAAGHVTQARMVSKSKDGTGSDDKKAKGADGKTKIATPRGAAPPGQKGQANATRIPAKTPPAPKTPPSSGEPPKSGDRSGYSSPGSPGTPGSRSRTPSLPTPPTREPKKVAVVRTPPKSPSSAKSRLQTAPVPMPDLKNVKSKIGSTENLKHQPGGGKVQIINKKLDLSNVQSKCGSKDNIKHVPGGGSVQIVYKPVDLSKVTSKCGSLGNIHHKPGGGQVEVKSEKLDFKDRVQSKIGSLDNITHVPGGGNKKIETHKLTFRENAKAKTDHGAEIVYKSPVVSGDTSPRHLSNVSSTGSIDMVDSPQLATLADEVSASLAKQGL
T6 sequence (P10635 whole entry): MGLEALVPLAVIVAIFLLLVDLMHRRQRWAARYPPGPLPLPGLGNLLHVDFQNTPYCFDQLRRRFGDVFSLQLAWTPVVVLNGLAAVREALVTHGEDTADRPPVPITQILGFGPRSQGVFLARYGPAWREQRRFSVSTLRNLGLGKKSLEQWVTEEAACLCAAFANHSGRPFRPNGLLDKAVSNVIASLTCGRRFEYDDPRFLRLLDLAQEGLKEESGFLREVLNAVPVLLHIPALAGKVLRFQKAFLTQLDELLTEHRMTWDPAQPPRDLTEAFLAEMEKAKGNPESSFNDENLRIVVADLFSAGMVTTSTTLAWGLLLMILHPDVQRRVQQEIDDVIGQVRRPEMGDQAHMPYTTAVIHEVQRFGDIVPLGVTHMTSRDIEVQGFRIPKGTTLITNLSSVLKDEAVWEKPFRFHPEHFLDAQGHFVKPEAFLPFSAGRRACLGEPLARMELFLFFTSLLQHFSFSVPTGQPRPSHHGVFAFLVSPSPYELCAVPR
T4 sequence (P11712 whole entry): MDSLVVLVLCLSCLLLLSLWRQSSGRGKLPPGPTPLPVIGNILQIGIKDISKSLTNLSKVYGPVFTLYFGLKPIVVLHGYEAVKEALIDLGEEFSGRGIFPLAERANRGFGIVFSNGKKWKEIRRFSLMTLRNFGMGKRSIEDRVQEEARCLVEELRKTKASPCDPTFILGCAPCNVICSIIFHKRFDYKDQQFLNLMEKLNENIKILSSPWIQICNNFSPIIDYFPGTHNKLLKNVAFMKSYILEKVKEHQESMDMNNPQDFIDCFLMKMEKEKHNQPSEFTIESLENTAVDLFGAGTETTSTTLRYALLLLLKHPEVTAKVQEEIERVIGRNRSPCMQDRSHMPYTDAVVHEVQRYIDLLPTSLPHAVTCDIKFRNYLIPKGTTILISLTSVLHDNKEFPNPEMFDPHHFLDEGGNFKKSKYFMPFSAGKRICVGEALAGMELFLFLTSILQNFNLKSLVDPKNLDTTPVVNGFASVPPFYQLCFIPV
T5 sequence (P33261 whole entry): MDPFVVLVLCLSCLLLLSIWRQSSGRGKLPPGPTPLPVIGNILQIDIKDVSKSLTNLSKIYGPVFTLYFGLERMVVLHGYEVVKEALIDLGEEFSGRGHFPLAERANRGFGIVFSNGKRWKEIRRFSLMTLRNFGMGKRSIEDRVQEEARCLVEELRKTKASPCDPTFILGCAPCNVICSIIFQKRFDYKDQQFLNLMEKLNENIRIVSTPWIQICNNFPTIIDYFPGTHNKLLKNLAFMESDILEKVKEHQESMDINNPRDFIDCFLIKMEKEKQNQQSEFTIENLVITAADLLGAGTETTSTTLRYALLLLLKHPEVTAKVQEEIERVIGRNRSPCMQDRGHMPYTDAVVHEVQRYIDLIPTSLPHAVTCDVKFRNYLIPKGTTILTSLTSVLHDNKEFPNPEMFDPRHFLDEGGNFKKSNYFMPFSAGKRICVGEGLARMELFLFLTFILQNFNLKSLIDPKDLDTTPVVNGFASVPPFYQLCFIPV
T2 sequence (P08684 whole entry): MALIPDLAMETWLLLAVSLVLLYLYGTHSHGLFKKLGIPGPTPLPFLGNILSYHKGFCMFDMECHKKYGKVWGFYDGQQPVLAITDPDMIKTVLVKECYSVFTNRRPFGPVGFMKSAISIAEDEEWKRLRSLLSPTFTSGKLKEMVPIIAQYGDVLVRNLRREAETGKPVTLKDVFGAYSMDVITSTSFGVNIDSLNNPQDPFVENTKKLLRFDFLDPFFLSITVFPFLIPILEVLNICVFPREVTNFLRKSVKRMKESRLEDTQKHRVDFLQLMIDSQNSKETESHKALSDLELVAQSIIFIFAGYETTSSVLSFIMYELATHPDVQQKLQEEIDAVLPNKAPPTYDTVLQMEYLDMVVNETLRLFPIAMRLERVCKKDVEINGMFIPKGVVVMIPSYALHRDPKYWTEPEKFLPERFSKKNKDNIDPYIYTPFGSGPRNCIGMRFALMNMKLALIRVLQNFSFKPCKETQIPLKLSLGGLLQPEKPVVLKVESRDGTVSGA

## Cc1cnc(C(=O)Nc2ccc(NN=C(C#N)C#N)cn2)cn1 [Compound 1, (6-(5-methylpyrazine-2-carboxamido)pyridin-3-yl)carbonohydrazonoyl dicyanide]
[1]
  Rat (%): 56.7%
[2]
  Cell viability (% @10 μM): 94.3%
[3]
  remaining activity at 10 µM: 0%
  IC50: 400 nM
[4]
  CYP3A4: 85
[5]
  CYP1A2: 80.7
[6]
  CYP2C9: 71.1
[7]
  CYP2C19: 74.6
[8]
  CYP2D6: 93.1
[9]
  Human (%): 86.5%
[10]
  Dog (%): 66.9%
[11]
  Mouse (%): 21.2%

## N#CC(C#N)=NNc1ccc(NC(=O)c2cccc(C(F)(F)F)c2)nc1 [Compound 26, (6-(3-(trifluoromethyl)benzamido)pyridin-3-yl)carbonohydrazonoyl dicyanide]
[1]
  Rat (%): 19.8%
[2]
  Cell viability (% @10 μM): 109.8%
[3]
  remaining activity at 10 µM: 0%
  IC50: 710 nM
[9]
  Human (%): 72.5%
[10]
  Dog (%): 29.8%
[11]
  Mouse (%): 7.1%

## N#CC(C#N)=NNc1ccc(Oc2ccccc2)nc1 [Compound 68, (6-phenoxypyridin-3-yl)carbonohydrazonoyl dicyanide]
[1]
  Rat (%): 63%
[2]
  Cell viability (% @10 μM): 117%
[3]
  remaining activity at 10 µM: 0%
  IC50: 110 nM
[9]
  Human (%): 6.7%
[10]
  Dog (%): 87.8%
[11]
  Mouse (%): 93.6%

## N#CC(C#N)=NNc1ccc(Oc2cccc(F)c2)nc1 [Compound 69, (6-(3-fluorophenoxy)pyridin-3-yl)carbonohydrazonoyl dicyanide]
[1]
  Rat (%): 75.6%
[2]
  Cell viability (% @10 μM): 119.4%
[3]
  remaining activity at 10 µM: 0%
  IC50: 260 nM
[9]
  Human (%): 8.4%
[10]
  Dog (%): 94.8%
[11]
  Mouse (%): 81.6%

## N#CC(C#N)=NNc1ccc(NC(=O)c2ccoc2)nc1 [Compound 110, (6-(furan-3-carboxamido)pyridin-3-yl)carbonohydrazonoyl dicyanide]
[1]
  Rat (%): 81.8%
[2]
  Cell viability (% @10 μM): 160.5%
[3]
  remaining activity at 10 µM: 0%
  IC50: 790 nM
[4]
  CYP3A4: 98.9
[5]
  CYP1A2: 88.3
[6]
  CYP2C9: 77.1
[7]
  CYP2C19: 88.4
[8]
  CYP2D6: 91.3
[9]
  Human (%): 89.7%
[11]
  Mouse (%): 92.4%

## Cc1cc(NN=C(C#N)C#N)ccc1OCc1ncccn1 [Compound 143, (3-methyl-4-(pyrimidin-2-ylmethoxy)phenyl)carbonohydrazonoyl dicyanide]
[1]
  Rat (%): 57.6%
[2]
  Cell viability: 125%
[3]
  remaining activity at 3 µM: 11%
[4]
  CYP3A4: 90.3
[5]
  CYP1A2: 95.9
[6]
  CYP2C9: >100
[7]
  CYP2C19: >100
[8]
  CYP2D6: >100
[9]
  Human (%): 78.3%
[11]
  Mouse (%): 50%

## Cc1cc(NN=C(C#N)C#N)ccc1OCc1cnccn1 [Compound 144, (3-methyl-4-(pyrazin-2-ylmethoxy)phenyl)carbonohydrazonoyl dicyanide]
[1]
  Rat (%): 92.4%
[2]
  Cell viability: 111%
[3]
  remaining activity at 3 µM: -20%
  IC50: 1280 nM
[4]
  CYP3A4: 89.2
[5]
  CYP1A2: 37.7
[6]
  CYP2C9: 24.5
[7]
  CYP2C19: >100
[8]
  CYP2D6: >100
[9]
  Human (%): 74.9%
[11]
  Mouse (%): 80.9%

## Cc1cc(NN=C(C#N)C#N)ccc1OCc1cccnc1 [Compound 145, (3-methyl-4-(pyridin-3-ylmethoxy)phenyl)carbonohydrazonoyl dicyanide]
[1]
  Rat (%): 91.2%
[2]
  Cell viability: 95%
[3]
  remaining activity at 3 µM: -49%
  IC50: 126 nM
[4]
  CYP3A4: 22
[5]
  CYP1A2: 5.3
[6]
  CYP2C9: 2.2
[7]
  CYP2C19: 46.5
[8]
  CYP2D6: 39.1
[9]
  Human (%): 93.7%
[11]
  Mouse (%): 93.3%

## Cc1cc(NN=C(C#N)C#N)ccc1OCc1nc2ccccc2[nH]1 [Compound 146, (4-((1H-benzo[d]imidazol-2-yl)methoxy)-3-methylphenyl)carbonohydrazonoyl dicyanide]
[1]
  Rat (%): 31.1%
[2]
  Cell viability: 133%
[3]
  remaining activity at 3 µM: -35%
  IC50: 444 nM
[4]
  CYP3A4: 82.7
[5]
  CYP1A2: >100
[6]
  CYP2C9: 47.2
[7]
  CYP2C19: 88.4
[8]
  CYP2D6: >100
[9]
  Human (%): 64.6%
[11]
  Mouse (%): 70.5%

## Cc1cc(NN=C(C#N)C#N)ccc1OCc1cscn1 [Compound 152, (3-methyl-4-(thiazol-4-ylmethoxy)phenyl)carbonohydrazonoyl dicyanide]
[1]
  Rat (%): 72.3%
[2]
  Cell viability: 117%
[3]
  remaining activity at 3 µM: -37%
  IC50: 54 nM
[4]
  CYP3A4: >100
[5]
  CYP1A2: 75.5
[6]
  CYP2C9: 17.2
[7]
  CYP2C19: 95
[8]
  CYP2D6: 96.1
[9]
  Human (%): 73.2%
[11]
  Mouse (%): 56.6%

## Cc1cc(NN=C(C#N)C#N)ccc1OCc1nc2ccccc2o1 [Compound 156, (4-(benzo[d]oxazol-2-ylmethoxy)-3-methylphenyl)carbonohydrazonoyl dicyanide]
[1]
  Rat (%): 55.5%
[2]
  Cell viability: 124%
[3]
  remaining activity at 3 µM: -29%
  IC50: 50 nM
[4]
  CYP3A4: 92.6
[5]
  CYP1A2: 95.9
[6]
  CYP2C9: 54
[7]
  CYP2C19: 83.7
[8]
  CYP2D6: 96
[9]
  Human (%): 49.3%
[11]
  Mouse (%): 41.3%
